Data reported in the supplement of paper PMC10307832.

Experiments:
Assay in all cases: relative viability (nuclei count vs DMSO), 5 days (fraction); higher = more cells survive
TPCA-1 + Foretinib = compound: C1=CC(=CC=C1C2=CC(=C(S2)NC(=O)N)C(=O)N)F [TPCA-1] + COc1cc2c(Oc3ccc(NC(=O)C4(C(=O)Nc5ccc(F)cc5)CC4)cc3F)ccnc2cc1OCCCN1CCOCC1 [Foretinib] (partner 0.25 µM)
Procedure, shortened: (§1)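 Medians of duplicate plates are given as relative viability. That measure is the nuclei count in treated wells divided by the count in vehicle wells. Counts were taken on 4× images of lung cancer cell lines in 1536-well plates, 5 days after pin-tool dosing the day after seeding with one drug alone or a fixed anchor-drug dose plus five library-drug doses (not always all listed) in √10 steps.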

[1] = compound: C1/C(=C\C2=CC=CS2)/C(=O)/C(=C/C3=CC=CS3)/C1 + O=C(c1cc(Cc2n[nH]c(=O)c3ccccc23)ccc1F)N1CCN(C(=O)C2CC2)CC1 [Olaparib] (partner 8 µM)
Procedure, shortened: as §1

TPCA-1 + Palbociclib = compound: C1=CC(=CC=C1C2=CC(=C(S2)NC(=O)N)C(=O)N)F [TPCA-1] + CC(=O)c1c(C)c2cnc(Nc3ccc(N4CCNCC4)cn3)nc2n(C2CCCC2)c1=O [Palbociclib] (partner 0.5 µM)
Procedure, shortened: as §1

[2] = compound: C[C@]12O[C@H](C[C@]1(O)CO)n1c3ccccc3c3c4c(c5c6ccccc6n2c5c31)CNC4=O [Lestaurtinib] + Nc1ncn([C@H]2C[C@H](O)[C@@H](CO)O2)c(=O)n1 [Decitabine] (partner 2 µM)
Procedure, shortened: as §1

Cell Line	relative viability (TPCA-1 + Foretinib; first compound 0.04 µM)	relative viability (TPCA-1 + Foretinib; first compound 0.1265 µM)	relative viability (TPCA-1 + Foretinib; first compound 0.4 µM)	relative viability (TPCA-1 + Foretinib; first compound 1.265 µM)	relative viability (TPCA-1 + Foretinib; first compound 4 µM)	relative viability ([1]; first compound 0.2 µM)	relative viability ([1]; first compound 0.6325 µM)	relative viability ([1]; first compound 2 µM)	relative viability ([1]; first compound 6.325 µM)	relative viability ([1]; first compound 20 µM)	relative viability (TPCA-1 + Palbociclib; first compound 0.04 µM)	relative viability (TPCA-1 + Palbociclib; first compound 0.1265 µM)	relative viability (TPCA-1 + Palbociclib; first compound 0.4 µM)	relative viability (TPCA-1 + Palbociclib; first compound 1.265 µM)	relative viability (TPCA-1 + Palbociclib; first compound 4 µM)	relative viability ([2]; first compound 0.005 µM)	relative viability ([2]; first compound 0.01581 µM)	relative viability ([2]; first compound 0.05 µM)	relative viability ([2]; first compound 0.1581 µM)	relative viability ([2]; first compound 0.5 µM)
LXF-289	0.972	0.966	0.89	0.981	0.692	1.06	1.07	1.06	0.936	1.02	0.623	0.605	0.627	0.643	0.514	0.312	0.428	0.374	0.364	0.315
NCI-H23	0.947	0.934	0.935	1.08	0.867	0.398	0.324	0.301	0.382	0.309	0.539	0.527	0.51	0.431	0.435	0.349	0.315	0.339	0.295	0.228
NCI-H322M	1.2	0.973	1.01	0.998	0.633	0.827	0.776	0.822	0.783	0.762	0.469	0.469	0.488	0.523	0.403	0.755	0.784	–	0.647	0.756
NCI-H358	0.811	0.729	0.845	0.517	0.227	0.862	0.715	0.657	0.443	0.492	0.152	0.157	0.137	0.109	0.108	0.219	0.212	0.15	0.12	0.144
NCI-H441	0.487	0.856	0.841	0.834	0.668	0.556	0.493	0.532	0.404	0.569	0.186	0.183	0.188	0.239	0.162	0.255	0.124	0.233	0.247	0.253
NCI-H460	1.05	0.918	1.07	1.05	0.857	0.548	0.455	0.503	0.398	0.449	0.187	0.086	–	0.16	0.136	0.639	0.519	0.499	0.548	0.305
NCI-H520	0.768	0.816	0.753	0.676	0.742	0.316	0.34	0.324	–	0.35	0.281	0.162	0.164	0.282	0.232	0.62	0.59	0.502	0.327	0.247
NCI-H647	1.2	1.14	1.11	1.16	0.782	0.776	0.482	0.433	0.501	0.573	0.47	0.4	0.342	0.38	0.188	0.415	0.404	0.337	0.311	0.173
NCI-H650	1.01	0.947	1.03	0.729	0.858	0.575	0.425	0.376	0.378	0.423	0.347	0.323	0.343	0.266	0.279	0.332	0.362	0.353	0.335	0.326
NCI-H661	1.08	1.03	1.06	0.96	0.888	0.757	0.76	0.712	0.614	0.81	0.413	0.397	0.411	0.399	0.378	0.552	0.59	0.52	0.502	0.33
NCI-H727	1.01	0.922	0.738	0.788	0.829	0.803	0.627	0.755	–	0.697	0.761	0.47	0.594	0.62	0.593	0.957	0.87	0.882	–	0.579
NCI-H838	1.06	0.99	0.918	0.843	0.769	0.779	0.752	0.704	0.714	0.739	0.225	0.193	0.222	0.194	0.199	0.508	0.559	0.501	0.399	0.161
NCI-H1355	0.991	0.837	0.977	0.932	0.705	0.742	0.76	0.727	0.657	0.736	0.455	0.395	0.408	0.389	0.361	0.389	0.349	0.329	0.311	0.344
NCI-H1395	1.05	1.01	0.975	0.96	0.823	0.494	0.53	0.435	0.458	0.453	0.644	0.596	0.639	0.635	0.512	0.778	0.765	0.774	0.684	0.453
NCI-H1437	1.31	1.4	1.25	1.32	1.41	0.667	0.618	0.634	0.563	0.617	0.302	0.288	0.3	0.35	0.3	0.546	0.649	0.645	0.626	0.636
NCI-H1650	1.15	–	1.36	1.14	0.858	0.854	0.793	0.734	0.69	0.717	0.323	0.309	0.408	0.474	0.354	0.441	0.623	0.457	0.506	0.54

Cell Line	relative viability (TPCA-1 + Foretinib; first compound 0.04 µM)	relative viability (TPCA-1 + Foretinib; first compound 0.1265 µM)	relative viability (TPCA-1 + Foretinib; first compound 0.4 µM)	relative viability (TPCA-1 + Foretinib; first compound 1.265 µM)	relative viability (TPCA-1 + Foretinib; first compound 4 µM)	relative viability ([1]; first compound 0.2 µM)	relative viability ([1]; first compound 0.6325 µM)	relative viability ([1]; first compound 2 µM)	relative viability ([1]; first compound 6.325 µM)	relative viability ([1]; first compound 20 µM)	relative viability (TPCA-1 + Palbociclib; first compound 0.04 µM)	relative viability (TPCA-1 + Palbociclib; first compound 0.1265 µM)	relative viability (TPCA-1 + Palbociclib; first compound 0.4 µM)	relative viability (TPCA-1 + Palbociclib; first compound 1.265 µM)	relative viability (TPCA-1 + Palbociclib; first compound 4 µM)	relative viability ([2]; first compound 0.005 µM)	relative viability ([2]; first compound 0.01581 µM)	relative viability ([2]; first compound 0.05 µM)	relative viability ([2]; first compound 0.1581 µM)	relative viability ([2]; first compound 0.5 µM)
NCI-H1651	0.862	0.656	0.801	0.794	0.735	0.174	0.207	0.197	0.19	0.229	0.54	0.493	0.51	0.535	0.505	0.63	0.775	0.59	0.653	0.406
NCI-H1666	0.961	0.942	0.931	0.962	0.997	0.76	0.769	0.77	0.69	0.708	0.653	0.661	0.605	0.673	0.64	0.769	0.807	0.944	0.912	0.704
NCI-H1734	0.897	0.742	0.917	0.818	0.732	0.621	0.597	0.596	0.528	0.629	0.352	0.313	0.388	0.363	0.307	0.56	0.499	0.442	0.444	0.253
NCI-H1755	0.914	0.895	0.923	0.832	0.669	0.88	0.907	0.916	0.749	0.877	0.457	0.454	0.459	0.431	0.399	0.723	0.791	0.806	0.638	0.559
NCI-H1793	0.72	–	0.647	0.559	0.263	0.904	0.931	0.978	0.782	0.893	0.358	0.301	0.303	0.355	0.213	0.506	0.481	0.459	0.542	0.421
NCI-H1915	1.17	1.06	1.15	1.07	0.872	0.264	0.247	0.307	0.241	0.26	0.568	0.475	0.515	0.516	0.465	0.275	0.266	0.284	0.263	0.217
NCI-H1944	1.04	0.821	0.869	0.847	0.488	0.435	0.385	0.392	–	0.41	0.354	0.336	0.293	0.319	0.225	0.419	0.481	0.442	0.463	0.317
NCI-H1975	0.949	0.919	0.995	0.97	0.532	0.757	0.795	0.855	0.538	0.782	0.593	0.532	0.613	0.552	0.142	0.395	0.39	0.356	0.36	0.338
NCI-H1993	0.798	0.644	0.75	0.663	0.676	1.1	0.969	1.17	0.958	0.85	0.726	0.531	0.645	0.717	0.534	0.62	0.666	0.729	0.499	0.428
NCI-H2009	1.24	1.21	1.22	1.28	1.18	0.71	0.683	0.701	–	0.707	0.254	0.204	0.25	0.174	0.19	0.373	0.392	0.399	0.36	0.347
NCI-H2023	0.88	0.86	0.874	0.797	0.658	0.457	0.501	0.459	0.459	0.417	0.366	0.394	0.444	0.37	0.165	0.241	0.254	0.231	0.183	0.105
NCI-H2085	0.846	0.79	1.2	0.882	0.742	0.764	0.774	0.808	0.709	0.765	–	0.47	0.489	0.443	0.46	0.55	0.583	0.664	0.597	0.551
NCI-H2087	1.52	0.99	1.09	0.894	0.432	0.708	0.528	0.699	0.561	0.594	0.253	0.241	0.218	0.237	0.155	0.289	0.338	0.258	0.207	0.206
NCI-H2126	1.25	0.721	1.16	1.06	1	0.951	0.926	0.883	0.882	0.85	0.388	0.382	0.364	0.355	0.3	0.582	0.593	0.623	0.536	0.553
NCI-H2170	1.08	0.985	0.998	0.986	0.682	0.619	0.645	0.595	0.422	0.536	0.413	0.404	0.417	0.391	0.275	0.461	0.489	0.441	0.43	0.383
NCI-H2342	1.03	0.998	1.15	0.992	0.962	0.392	0.464	0.454	0.419	0.435	0.461	0.546	0.535	0.534	0.547	0.713	0.76	0.742	0.722	0.77
